Each block holds one molecule with its values, some of them ahead of it. Peptide text beside a SMILES is read from it. * marks the point of attachment. 5FAM = O=C1OC2(c3ccc(O)cc3Oc3cc(O)ccc32)c2ccc(C(=O)*)cc21; Ahx = NCCCCCC(=O)O
What was measured:
Format in all cases: binding
[1] = target: T1, MyoVb-GTD (Homo sapiens, UniProt Q9ULV0); test: Fluorescence anisotropy, fluorescein-labeled Spir-2 peptide
T1 construct: aa 1456 - 1848 (BamHI / XhoI); His6 (6xHis) with rTEV site (N, cleaved yes); made in house; host or cells: Escherichia coli BL21(DE3) or BL21-CodonPlus-RILP
T1 sequence (Q9ULV0 1456-1848): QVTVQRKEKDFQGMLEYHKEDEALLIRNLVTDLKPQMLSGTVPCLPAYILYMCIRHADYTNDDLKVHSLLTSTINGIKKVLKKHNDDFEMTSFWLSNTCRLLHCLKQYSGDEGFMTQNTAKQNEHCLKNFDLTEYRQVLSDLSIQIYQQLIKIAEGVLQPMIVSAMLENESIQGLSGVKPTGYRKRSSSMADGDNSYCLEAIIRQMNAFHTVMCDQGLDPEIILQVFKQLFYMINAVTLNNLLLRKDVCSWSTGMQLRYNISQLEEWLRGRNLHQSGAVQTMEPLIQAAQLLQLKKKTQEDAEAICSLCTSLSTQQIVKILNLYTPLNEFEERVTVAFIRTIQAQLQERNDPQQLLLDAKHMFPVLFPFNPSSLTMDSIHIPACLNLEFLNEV
Procedure: (§1) Fluorescence anisotropy measurements were performed on a PTI Quanta-Master QM4CW spectrofluorometer (PTI, Lawrenceville, NJ, USA) at 25°C using a 10 mm wide quartz cell. Bandwidths of excitation and emission monochromators were set respectively at 5 and 15 nm. Fluorescence anisotropy, expressed in millianisotropy units, was calculated according to the equation A=IVV−GIVH/IVV+2GIVH
(§2) with A is anisotropy, G = IHV/IHH is a correction factor for wavelength-dependent distortion, and I is the fluorescence intensity component. Anisotropy values were averaged from 30 different acquisitions. The cell was charged with 1 µM of fluorescein labeled Spir-2-401-427 peptide in a final volume of 1 ml in buffer (100 mM Tris-HCl pH 8.0, 150 mM NaCl, 2 mM MgCl2, 2 mM TCEP, 5% (v/v) glycerol) and titrated with MyoVa-GTD or MyoVb-GTD (50 nM–5 µM). The binding isotherms were fitted to obtain the equilibrium dissociation constants Kd and standard errors, by using the Origin 2015 software that implements Levenberg Marquardt iterative minimization algorithms, using the equation y=F0+Fm−F0/2P(P+x+Kd−(P+x+Kd)^2−4Px)
(§3) with y represents the fluorescence anisotropy, x the concentration of MyoV-GTD, F0 the initial anisotropy, Fm the maximum anisotropy, and P the peptide concentration. Experiments were repeated twice with two different protein preparations.

[2] = target: T2, MyoVc-GTD (Homo sapiens, UniProt Q9NQX4); test: Microscale thermophoresis, fluorescein-labeled Spir-2 peptide; settings: human Spir-2 aa 401–427
T2 construct: aa 1350 - 1742 (BamHI / XhoI); His6 (6xHis) with rTEV site (N, cleaved yes); made in house; host or cells: Escherichia coli BL21(DE3) or BL21-CodonPlus-RILP
Procedure: MST experiments were performed on a Monolith NT.115 system (NanoTemper Technologies, München, Germany) using 5% LED and 30% IR-laser power at 21.5°C. Laser on and off times were set at 30 s and 5 s, respectively. Fluorescein labeled Spir-2 peptide was synthesized by Genscript, the peptide was dissolved in PBS with 0.005% Tween-20 and diluted to 1 μM concentration. A two-fold dilution series was prepared for the MyoVc-GTD in the interaction buffer (50 mM Tris pH 8.0, 250 mM NaCl, 2 mM MgCl2, 2 mM TCEP, 5% (v/v) glycerol) and each dilution point was transferred to the Fluorescein-Spir-2 solution. The final concentrations of MyoVc-GTD ranged from 97 μM to 2.96 nM, the final concentration of the labeled peptide was 500 nM. Samples were filled into premium capillaries (NanoTemper Technologies) for measurements. The experiments were performed with three independent replicates. The affinity was quantified by analyzing the change in normalized fluorescence as a function of the concentration of the titrated peptide using the NTAnalysis software provided by the manufacturer.

[3] = target: T3, MyoVa-GTD (Homo sapiens, UniProt Q9Y4I1); test: Fluorescence anisotropy, fluorescein-labeled Spir-2 peptide; settings: 1 µM peptide, MyoVa-GTD 50 nM–5 µM; 100 mM Tris-HCl pH 8.0, 150 mM NaCl, 2 mM MgCl2, 2 mM TCEP, 5% glycerol; 25°C; ± standard error; repeated twice with two protein preparations; read-out: equilibrium dissociation constant (Kd)
T3 construct: aa 1461 - 1853 (BamHI / XhoI); His6 (6xHis) with rTEV site (N, cleaved yes); made in house; host or cells: Escherichia coli BL21(DE3) or BL21-CodonPlus-RILP
Procedure: as §1, §2, §3

[4] = target: T3, MyoVa-GTD; test: Surface plasmon resonance, Rab11a captured; settings: MyoVa-GTD 10 nM–5 µM over captured Rab11a-Q70L(GTP) or Rab11-wt(GDP); 50 mM Hepes pH 7.5, 100 mM NaCl, 2 mM MgCl2, 1 mM TCEP; 25°C; steady state; mean ± SEM, N = 3; read-out: dissociation equilibrium constant (Kd)
Procedure: (§4) The assays were carried out at 25°C in buffer (50 mM Hepes pH 7.5, 100 mM NaCl, 2 mM MgCl2, 1 mM TCEP). 200–250 resonance units (RU; 1RU ≈ 1 pg × mm^−2) of Rab11a-Q70L(GTP) or Rab11-wt(GDP) were captured through their His6-tag on the surface of a NTA sensorchip using a Biacore 2000 instrument (GE Healthcare Life Sciences). MyoVa-GTD or MyoVb-GTD (10 nM–5 µM) were then injected over the tethered Rabs for one minute at a flow rate of […]. The surface was regenerated with a 2-min 0.3 M EDTA incubation and a 1-min 0.1% SDS wash. The real-time interaction profiles were double referenced using the Scrubber 2.0 software (BioLogic Software, Campbell, Australia), both the signals from a reference surface (with a non-relevant protein captured on NTA) and from blank experiments using buffer instead of MyoV-GTD were subtracted. The MyoV-GTD concentration-dependence of the steady-state SPR signals was then analyzed to determine the dissociation equilibrium constants (Kd) of the different complexes using the numerical integration algorithm software Biaevaluation 4.1. Each experiment (10 point 2-fold dilution concentration series each) was repeated in triplicate, yielding mean Kd values and standard errors (SEM).

[5] = target: T1, MyoVb-GTD; test: Surface plasmon resonance, Rab11a captured; settings: MyoVb-GTD 10 nM–5 µM over captured Rab11a-Q70L(GTP) or Rab11-wt(GDP); 50 mM Hepes pH 7.5, 100 mM NaCl, 2 mM MgCl2, 1 mM TCEP; 25°C; steady state; mean ± SEM, N = 3; read-out: dissociation equilibrium constant (Kd)
Procedure: as §4

T3 sequence (Q9Y4I1 1463-1855): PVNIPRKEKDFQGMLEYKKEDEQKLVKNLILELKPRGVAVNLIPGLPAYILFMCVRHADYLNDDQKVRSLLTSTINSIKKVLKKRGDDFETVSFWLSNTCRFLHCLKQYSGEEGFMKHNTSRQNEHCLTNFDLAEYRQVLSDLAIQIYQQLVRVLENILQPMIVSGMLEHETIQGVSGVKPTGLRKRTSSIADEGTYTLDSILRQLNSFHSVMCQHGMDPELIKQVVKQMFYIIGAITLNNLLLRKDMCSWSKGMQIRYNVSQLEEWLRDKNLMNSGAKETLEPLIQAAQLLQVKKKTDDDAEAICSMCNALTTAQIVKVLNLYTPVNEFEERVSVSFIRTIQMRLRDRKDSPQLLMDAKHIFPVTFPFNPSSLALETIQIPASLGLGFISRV
T2 sequence (Q9NQX4 1350-1742): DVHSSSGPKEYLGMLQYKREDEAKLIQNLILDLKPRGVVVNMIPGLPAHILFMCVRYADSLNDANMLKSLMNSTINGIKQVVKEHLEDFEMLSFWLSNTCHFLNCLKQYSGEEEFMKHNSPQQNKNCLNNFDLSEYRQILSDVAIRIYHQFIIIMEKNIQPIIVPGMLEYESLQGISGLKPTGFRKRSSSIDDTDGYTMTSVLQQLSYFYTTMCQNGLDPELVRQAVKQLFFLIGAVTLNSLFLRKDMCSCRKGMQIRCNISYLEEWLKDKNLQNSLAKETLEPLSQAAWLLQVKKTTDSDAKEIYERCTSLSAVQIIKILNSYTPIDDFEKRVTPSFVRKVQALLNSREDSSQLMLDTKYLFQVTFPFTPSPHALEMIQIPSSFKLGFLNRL

binding affinity in words ([1]; human Spir-2 aa 401–427): low micromolar affinity
binding affinity in words [2]: micromolar range affinity
Molecule: QRPRPRVLLKAPTLAEMEEMNTSEEEE [Spir-2-GTBM]

Kd [3]: 900 ± 110 nM
Kd ([1]; 1 µM peptide, MyoVb-GTD 50 nM–5 µM, 100 mM Tris-HCl pH 8.0, 150 mM NaCl, 2 mM MgCl2, 2 mM TCEP, 5% glycerol, 25°C, ± standard error, repeated twice with two protein preparations, read-out: equilibrium dissociation constant (Kd)): 2000 ± 70 nM
Molecule: CSCC[C@H](NC(=O)[C@H](CCC(=O)O)NC(=O)[C@H](C)NC(=O)[C@H](CC(C)C)NC(=O)[C@@H](NC(=O)[C@@H]1CCCN1C(=O)[C@H](C)NC(=O)[C@H](CCCCN)NC(=O)[C@H](CC(C)C)NC(=O)[C@H](CC(C)C)NC(=O)[C@@H](NC(=O)[C@H](CCCNC(=N)N)NC(=O)[C@@H]1CCCN1C(=O)[C@H](CCCNC(=N)N)NC(=O)[C@@H]1CCCN1C(=O)[C@H](CCCNC(=N)N)NC(=O)[C@H](CCC(N)=O)NC(=O)CCCCCNC(=O)c1ccc2c(c1)C(=O)OC21c2ccc(O)cc2Oc2cc(O)ccc21)C(C)C)[C@@H](C)O)C(=O)N[C@@H](CCC(=O)O)C(=O)N[C@@H](CCC(=O)O)C(=O)N[C@@H](CCSC)C(=O)N[C@@H](CC(N)=O)C(=O)N[C@H](C(=O)N[C@@H](CO)C(=O)N[C@@H](CCC(=O)O)C(=O)N[C@@H](CCC(=O)O)C(=O)N[C@@H](CCC(=O)O)C(=O)N[C@@H](CCC(=O)O)C(=O)O)[C@@H](C)O [Fluorescein-Spir-2-GTBM] ({5FAM-Ahx}-QRPRPRVLLKAPTLAEMEEMNTSEEEE-OH)

Kd [4]: 203 ± 42 nM
Kd [5]: 1370 ± 240 nM
B1: Rab11GTP: Rab11a-Q70L(GTP) captured through its His6-tag (protein, UniProt P62491 2-213, looked up, variant Q70L)
Ras-related protein Rab-11A: GTRDDEYDYLFKVVLIGDSGVGKSNLLSRFTRNEFNLESKSTIGVEFATRSIQVDGKTIKAQIWDTAGLERYRAITSAYYRGAVGALLVYDIAKHLTYENVERWLKELRDHADSNIVIMLVGNKSDLRHLRAVPTDEARAFAEKNGLSFIETSALDSTNVEAAFQTILTEIYRIVSQKQMSDRRENDMSPSNNVVPIHVPPTTENKPKVQCC
modifications: His6 tag; GTP-bound

Source: paper PMC5021521, “Coordinated recruitment of Spir actin nucleators and myosin V motors to Rab11 vesicle membranes” (eLife, 2016)
